Values after ≈ are worked out from the molar mass of the structure shown.
How the values were obtained:
[1] = biological target: histone deacetylase (HeLa nuclear extracts); experiment: In vitro assay for inhibition of histone deacetylase with fluorescent-labelled substrate (Fluor de Lys); type: biochemical
Source text: The in vitro assay for inhibition of histone deacetylase (see example C.1) measures the inhibition of HDAC enzymatic activity obtained with the compounds of formula (I).
The HDAC Fluorescent Activity Assay/Drug Discovery Kit of Biomol (cat. No: AK-500-0001) was used. The HDAC Fluorescent Activity Assay is based on the Fluor de Lys (Fluorogenic Histone deAcetylase Lysyl) substrate and developer combination. The Fluor de Lys substrate, comprises an acetylated lysine side chain. Deacetylation of the substrate sensitizes the substrate so that, in the second step, treatment with the Fluor de Lys developer produces a fluorophore.
HeLa nuclear extracts (supplier: Biomol) were incubated at 60 μg/ml with 75 μM of substrate. The Fluor de Lys substrate was added in a buffer containing 25 mM Tris, 137 mM NaCl, 2.7 mM KCl and 1 mM MgCl2.6H2O at pH 7.4. After 30 min, 1 volume of the developer was added. The fluorophore was excited with 355 nm light and the emitted light (450 nm) was be detected on a fluorometric plate reader.
For each experiment, controls (containing HeLa nuclear extract and buffer), a blank incubation (containing buffer but no HeLa nuclear extract) and samples (containing compound dissolved in DMSO and further diluted in buffer and HeLa nuclear extract) were run in parallel. In first instance, compounds were tested at a concentration of 10^−5M. […] All sample were tested 4 times. In each test the blank value was subtracted from both the control and the sample values. The control sample represented 100% of substrate deactylation. For each sample the fluorescence was expressed as a percentage of the mean value of the controls. […] Herein the effects of test compounds are expressed as pIC50 (the negative log value of the IC50-value) (see Table F-2).

[2] = tested on: A2780 ovarian carcinoma cells; experiment: Antiproliferative activity on A2780 cells (MTT); type: cell-based; conditions: Homo sapiens, 96 h, four days of incubation, read-out: Cellular activity pIC50 C.2 (converted)
Protocol: Cellular activity of the compounds of formula (I) was determined on A2780 tumour cells using a colorimetric assay for cell toxicity or survival (Mosmann Tim, Journal of Immunological Methods 65: 55-63, 1983)(see example C.2).
All compounds tested were dissolved in DMSO and further dilutions were made in culture medium. Final DMSO concentrations never exceeded 0.1% (v/v) in cell proliferation assays. Controls contained A2780 cells and DMSO without compound and blanks contained DMSO but no cells. MTT was dissolved at 5 mg/ml in PBS. A glycine buffer comprised of 0.1 M glycine and 0.1 M NaCl buffered to pH 10.5 with NaOH (1 N) was prepared (all reagents were from Merck).
The human A2780 ovarian carcinoma cells (a kind gift from Dr. T. C. Hamilton [Fox Chase Cancer Centre, Pennsylvania, USA]) were cultured in RPMI 1640 medium supplemented with 2 mM L-glutamine, 50 μg/ml gentamicin and 10% fetal calf serum. Cells were routinely kept as monolayer cultures at 37° C. in a humidified 5% CO2 atmosphere. Cells were passaged once a week using a trypsin/EDTA solution at a split ratio of 1:40. All media and supplements were obtained from Life Technologies. Cells were free of mycoplasma contamination as determined using the Gen-Probe Mycoplasma Tissue Culture kit (supplier: BioMérieux).
Cells were seeded in NUNC™ 96-well culture plates (Supplier: Life Technologies) and allowed to adhere to the plastic overnight. Densities used for plating were 1500 cells per well in a total volume of 200 μl medium. After cell adhesion to the plates, medium was changed and drugs and/or solvents were added to a final volume of 200 μl. Following four days of incubation, medium was replaced by 200 μl fresh medium and cell density and viability was assessed using an MTT-based assay. To each well, 25 μl MTT solution was added and the cells were further incubated for 2 hours at 37° C. The medium was then carefully aspirated and the blue MTT-formazan product was solubilized by addition of 25 μl glycine buffer followed by 100 μl of DMSO. […] Within an experiment, the results for each experimental condition are the mean of 3 replicate wells. For initial screening purposes, compounds were tested at a single fixed concentration of 10^−6 M. For active compounds, the experiments were repeated to establish full concentration-response curves. For each experiment, controls (containing no drug) and a blank incubation (containing no cells or drugs) were run in parallel. The blank value was subtracted from all control and sample values. For each sample, the mean value for cell growth (in absorbance units) was expressed as a percentage of the mean value for cell growth of the control. […] Herein the effects of test compounds are expressed as pIC50 (the negative log value of the IC50-value)(see Table F-2).

[3] = Solubility at pH 2.3 (chemiluminescent nitrogen detector); type: physicochemical; conditions: pH 2.3, aqueous buffer; read-out: Solubility C.3.c. pH = 2.3
Source text: In a third method the solubility of a compound at different pH's can be measured with the use of a Chemiluminescent Nitrogen Detector (see example C.3.c).
The solubility of a compound, at pH 2.3, can also be measured with the use of a chemiluminescent nitrogen detector (see Table F-2).

SMILES | Enzymatic activity pIC50 C.1 [1] | IC50 [2] | melting point | solubility [3]
Cn1nc(CNCC2CN(c3ncc(C(=O)NO)cn3)CCO2)c2ccccc21 (stereo not shown) [Compound 4] | 7.8 | 200 nM | 193 °C | 
Cn1nc(CNCC2CN(c3ncc(C(=O)Nc4ccccc4N)cn3)CCO2)c2ccccc21 (stereo not shown) [Compound 5] |  |  | 152 °C | 
Cn1nc(CN2CCN(c3ccc(C(=O)Nc4ccccc4N)cn3)CC2)c2ccccc21 [Compound 6] |  |  | 219 °C | 
Cn1nnc2cc(COCC3CCN(c4ncc(C(=O)NO)cn4)CC3)ccc21 [Compound 7] | 7.8 | 200 nM | 197 °C | 
O=C(NO)c1cnc(N2CCC(CNCc3nc4ccccc4s3)CC2)nc1 [Compound 8] | 8.2 | 100 nM | 208 °C | 2500 µg/mL (≈ 6.27 mM)
CCN(Cc1ccc2c(c1)nnn2C)CC1CCN(c2ncc(C(=O)NO)cn2)CC1 [Compound 9] | 8.3 | 200 nM | 168 °C | 2400 µg/mL (≈ 5.65 mM)
CCN(Cc1ccc2nnn(C)c2c1)CC1CCN(c2ncc(C(=O)NO)cn2)CC1 [Compound 10] | 8.7 | 50.1 nM | 110 °C | 2700 µg/mL (≈ 6.36 mM)
Cn1nnc2cc(CN(CC3CCN(c4ncc(C(=O)NO)cn4)CC3)C(=O)NO)ccc21 [Compound 11] | 8.5 | 794 nM | 130 °C | 
Cn1nnc2ccc(CN(CC3CCN(c4ncc(C(=O)NO)cn4)CC3)S(C)(=O)=O)cc21 [Compound 12] | 7.8 | 1260 nM | 260 °C | < 10 µg/mL
CCC(=O)N(Cc1nn(C)c2ccccc12)CC1CCN(c2ncc(C(=O)NO)cn2)CC1 [Compound 13] | 7.6 | 251 nM | 199 °C | < 10 µg/mL
Cn1nc(CN2CCN(c3ccc(C(=O)NO)cn3)CC2)c2ccccc21 [Compound 14] | 7.5 | 158 nM |  | 
Cn1cc(CNCC2CCN(c3ncc(C(=O)NO)cn3)CC2)c2cccnc21 [Compound 15] | 8.2 | 39.8 nM |  | 
Cn1nc(CNCC2CCN(c3ccc(C(=O)NO)cn3)CC2)c2ccccc21 [Compound 16] | 7.5 | 100 nM |  | 
CCCn1nc(CNCC2CCN(c3ncc(C(=O)NO)cn3)CC2)c2ccccc21 [Compound 17] | 9.0 | 31.6 nM |  | 3800 µg/mL (≈ 8.97 mM)
CC(C)n1nnc2cc(CNCC3CCN(c4ncc(C(=O)NO)cn4)CC3)ccc21 [Compound 18] | 7.6 | 158 nM |  | 
Cn1nc2ccccc2c1CNCC1CCN(c2ncc(C(=O)NO)cn2)CC1 [Compound 19] | 8.1 | 1580 nM |  | 2500 µg/mL (≈ 6.32 mM)
Cn1nnc2cc(CNCC3CCN(c4ncc(C(=O)NO)cn4)CC3)ccc21 [Compound 20] | 7.8 | 158 nM |  | 2500 µg/mL (≈ 6.31 mM)
CC(=O)N(Cc1nc2ccccc2n1C)CC1CCN(c2ncc(C(=O)NO)cn2)CC1 [Compound 21] | 7.5 | 794 nM |  | 1900 µg/mL (≈ 4.34 mM)
Cc1nc2ccc(CNCC3CCN(c4ncc(C(=O)NO)cn4)CC3)cc2[nH]1 [Compound 23] | 8.0 | 1000 nM |  | 
CCN(Cc1ccc2c(c1)nnn2C(C)C)CC1CCN(c2ncc(C(=O)NO)cn2)CC1 [Compound 24] | 8.4 | 50.1 nM |  | 4600 µg/mL (≈ 10.2 mM)
Cn1nnc2cc(CN(CC#N)CC3CCN(c4ncc(C(=O)NO)cn4)CC3)ccc21 [Compound 25] | 7.7 | 126 nM |  | 
CC(=O)N(Cc1ccc2c(c1)nnn2C)CC1CCN(c2ncc(C(=O)NO)cn2)CC1 [Compound 26] | 7.4 | 1580 nM |  | 
CCC(=O)N(Cc1ccc2nnn(C)c2c1)CC1CCN(c2ncc(C(=O)NO)cn2)CC1 [Compound 27] | 6.9 | 2000 nM |  | < 10 µg/mL
CCCn1nc(CN(CC2CCN(c3ncc(C(=O)NO)cn3)CC2)C(=O)CC)c2ccccc21 [Compound 28] | 7.4 | 251 nM |  | 10 µg/mL (≈ 0.0209 mM)
CC(=O)N(Cc1ccc2c(c1)nnn2C(C)C)CC1CCN(c2ncc(C(=O)NO)cn2)CC1 [Compound 29] | 7.2 | 794 nM |  | 400 µg/mL (≈ 0.857 mM)
CCCn1nc(CN2CCN(c3ccc(C(=O)Nc4cc(-c5cccs5)ccc4N)cn3)CC2)c2ccccc21 [Compound 31] |  |  | 138 °C | 
